Test results reported in PMC4046051, “Two M-T hook residues greatly improve the antiviral activity and resistance profile of the HIV-1 fusion inhibitor SC29EK” (Retrovirology, 2014).
Peptide text beside a SMILES is read from it.

How the values were obtained:
[1] = target: T1, NHR peptide N36 (HIV-1 gp41) (Human immunodeficiency virus type 1 group M subtype B, UniProt P04578); assay: CD thermal denaturation of 6-HB formed by CHR peptide and N36; type: binding; details: CHR peptide + N36, each 10 μM in PBS pH 7.2; CD at 222 nm, 20-98°C
T1 construct: made in house; host or cells: chemical synthesis (solid-phase FMOC), no expression host
Procedure: CD spectroscopy was performed according to our protocols described previously. […] The final concentration of each peptide was 10 μM in PBS buffer (pH 7.2). The CD spectra were acquired on a Jasco spectropolarimeter (model J-815) using a 1 nm bandwidth with a 1 nm step resolution from 195 to 260 nm at room temperature. The spectra were corrected by subtraction of a blank corresponding to the solvent. Data were averaged over three accumulations. The α-helical content was calculated from the CD signal by dividing the mean residue ellipticity [θ] at 222 nm by the value expected for 100% helix formation (-33,000 degrees.cm^2.dmol^-1). The thermal denaturation experiment was performed by monitoring the change in ellipticity [θ] at 222 nm at the increasing temperature (20–98°C) using temperature controller. The temperature was increased at a rate of 1.2°C per min; data were acquired at a 1 nm bandwidth at 222 nm at a frequency of 0.25 Hz. The melting curve was smoothened, and the midpoint of the thermal unfolding transition (Tm) values were taken as the maximum of the derivative d [θ]222/dT. The Tm value was detected at a peptide concentration of 10 μM in PBS buffer.

[2] = target: T1, NHR peptide N36 (HIV-1 gp41); assay: Isothermal titration calorimetry (ITC) with N36; type: binding; details: 25°C
Procedure: ITC assay was performed using an ITC200 Microcalorimeter instrument (MicroCal, USA) as described previously. In brief, 1 mM N36 dissolved in ddH20 was injected into the chamber containing 100 μM SC29EK or MT-SC29EK. The experiments were carried out at 25°C. The time between injections was 240 s and the stirring speed was 500 rpm. The heats of dilution were determined in control experiments by injecting N36 into ddH20 and subtracted from the heats produced in the corresponding peptide-peptide binding experiments. Data acquisition and analysis were performed using MicroCal Origin software (version 7.0).

[3] = target: T2, six-helical bundle (6-HB) of N36 and biotinylated-C34 (Human immunodeficiency virus type 1 group M subtype B, UniProt P04578); assay: Inhibition of 6-HB formation, NC-1 capture ELISA; type: biochemical, HIV-1
T2 construct: made in house; host or cells: chemical synthesis (solid-phase FMOC), no expression host
Procedure: The 6-HB core-specific monoclonal antibody NC-1 was obtained from Dr. Shibo Jiang in the New York Blood Center (New York, NY) through the ARRRP, Division of AIDS, NIAID, National Institute of Health. The inhibitory activity of SC29EK or MT-SC29EK on the 6-HB formation was measured by a modified ELISA as previously described. Briefly, a 96-well polystyrene plate was coated with 2 μg/ml NC-1 in 0.1 M Tris buffer (pH 8.8). A tested peptide at graded concentrations was mixed with the biotinylated-C34 (0.1 μM) and incubated with N36 (0.1 μM) at room temperature for 30 min. The mixture was then added to the NC-1-coated plate, followed by incubation for 30 min and washing with a washing buffer (PBS containing 0.1% Tween 20) three times. Then horseradish peroxidase (HRP)-labeled streptavidin (Invitrogen) and the substrate 3,3,5,5- tetramethylbenzidine (Sigma) were sequentially added. Absorbance at 450 nm (A450) was measured using an ELISA reader.

HIV-1NL4-3 pseudovirus = type: cell-based
Procedure: (§1) The inhibition of peptides on the HIV-1 entry was determined by single-cycle infection assay as described previously. Briefly, HIV-1 pseudovirus was generated by cotransfecting 293 T cells with an Env-expressing plasmid and a backbone plasmid pSG3^Δenv that encodes Env-defective, luciferase-expressing HIV-1 genome. The supernatants were harvested and filtered 48 h after transfection and 50% tissue culture infectious dose (TCID50) was determined in TZM-bl cells. The peptides were prepared with 3-fold dilutions and mixed with 100 TCID50 viruses and then incubated 1 h at room temperature. The mixture was added to TZM-bl cells (10^4/well) and incubated 48 h at 37°C. The luciferase activity was measured using luciferase assay reagents and a Luminescence Counter (Promega).

wild-type HIV-1NL4-3 = type: cell-based
Procedure: The inhibition of peptides on HIV-1 replication was determined by a molecular cloned wild-type HIV-1NL4–3. In brief, the virus stock was harvested and quantified 48 h post-transfection. 100 TCID50 viruses were used to infect TZM-bl cells in the presence or absence of serially diluted peptides. Two days post-infection, the cells were harvested and lysed in reporter lysis buffer and the luciferase activity was measured as described above.

HIV-1 NL4-3 WT = assay: Inhibition of T20-resistant HIV-1 variants panel: WT; type: cell-based
Procedure: as §1

HIV-1 NL4-3 I37T = assay: Inhibition of T20-resistant HIV-1 variants: I37T; type: cell-based
Procedure: as §1

HIV-1 NL4-3 V38A = assay: Inhibition of T20-resistant HIV-1 variants: V38A; type: cell-based
Procedure: as §1

HIV-1 NL4-3 V38M = assay: Inhibition of T20-resistant HIV-1 variants: V38M; type: cell-based
Procedure: as §1

HIV-1 NL4-3 Q40H = assay: Inhibition of T20-resistant HIV-1 variants: Q40H; type: cell-based
Procedure: as §1

HIV-1 NL4-3 N43K = assay: Inhibition of T20-resistant HIV-1 variants: N43K; type: cell-based
Procedure: as §1

HIV-1 NL4-3 D36S/V38M = assay: Inhibition of T20-resistant HIV-1 variants: D36S/V38M; type: cell-based
Procedure: as §1

HIV-1 NL4-3 I37T/N43K = assay: Inhibition of T20-resistant HIV-1 variants: I37T/N43K; type: cell-based
Procedure: as §1

HIV-1 NL4-3 V38A/N42T = assay: Inhibition of T20-resistant HIV-1 variants: V38A/N42T; type: cell-based
Procedure: as §1

[4] = mean ± SD of three independent experiments, SD

T1 sequence (P04578 546-581): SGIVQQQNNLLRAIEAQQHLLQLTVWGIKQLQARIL
T2 sequence (P04578 546-581): as above

In the case of `CC[C@H](C)[C@H](NC(=O)[C@H](CC(C)C)NC(=O)[C@H](CCC(=O)O)NC(=O)[C@H](CCC(=O)O)NC(=O)[C@@H](NC(=O)[C@H](CCCCN)NC(=O)[C@H](CCCCN)NC(=O)[C@@H](NC(=O)[C@H](Cc1ccc(O)cc1)NC(=O)[C@H](CCC(=O)O)NC(=O)[C@H](CCC(=O)O)NC(=O)[C@@H](NC(=O)[C@H](CCCCN)NC(=O)[C@H](CCCCN)NC(=O)[C@H](CC(=O)O)NC(=O)[C@H](Cc1c[nH]c2ccccc12)NC(=O)[C@H](CCC(=O)O)NC(=O)[C@H](CCC(=O)O)NC(=O)[C@H](Cc1c[nH]c2ccccc12)NC(=O)[C@@H](NC(=O)[C@H](CCSC)NC(C)=O)[C@@H](C)O)[C@@H](C)CC)[C@@H](C)O)[C@@H](C)CC)C(=O)N[C@@H](CCCCN)C(=O)N[C@@H](CCCCN)C(=O)N[C@@H](CO)C(=O)N[C@@H](CCC(=O)O)C(=O)N[C@@H](CCC(=O)O)C(=O)N[C@@H](CCC(N)=O)C(=O)N[C@@H](CCC(N)=O)C(=O)N[C@@H](CCCCN)C(=O)N[C@@H](CCCCN)C(=O)N[C@@H](CC(N)=O)C(N)=O` [MT-SC29EK] (Ac-MTWEEWDKKIEEYTKKIEELIKKSEEQQKKN-NH2), the “Tm (midpoint of the thermal unfolding transition) of 6-HB” value [1] is reported as 79.1 °C, the Kd ([2]; 1 mM N36 injected into 100 μM peptide, read-out: binding constant (K) (converted)) is reported as 15.5 nM and the “fold increase of K value compared to SC29EK” value [2] is reported as 4.7 fold. For the same compound, the “fold increase of 6-HB blocking potency over SC29EK” value [3] was 23 fold, the IC50 ([3]; biotinylated-C34 0.1 μM, N36 0.1 μM, 30 min room temperature, 3 independent experiments) was 600 nM and the “fold increased potency over SC29EK, entry” value (HIV-1NL4-3 pseudovirus) was 3.1 fold. The IC50 (HIV-1NL4-3 pseudovirus; 100 TCID50, TZM-bl cells, 48 h, luciferase, mean ± SD of three independent experiments, SD, read-out: IC50 Entry) was 0.7 nM, the “fold increase of potency over SC29EK, replication” value (wild-type HIV-1NL4-3; wild-type HIV-1NL4-3) was 4.5 fold and the IC50 (wild-type HIV-1NL4-3; wild-type HIV-1NL4-3, 100 TCID50, TZM-bl cells, two days, luciferase, mean ± SD of three independent experiments, SD, read-out: IC50 Replication) was 0.2 nM. The “n-fold relative to the IC50 of the wild-type (WT) virus” value (shortened to “n-fold relative to the IC50”) (HIV-1 NL4-3 WT) was 1, the IC50 (HIV-1 NL4-3 WT; [4]) was 0.6 ± 0.1 nM and the “n-fold relative to the IC50” value (HIV-1 NL4-3 I37T) was 1.3. The IC50 (HIV-1 NL4-3 I37T; [4]) was 0.8 ± 0.2 nM, the “n-fold relative to the IC50” value (HIV-1 NL4-3 V38A) was 1 and the IC50 (HIV-1 NL4-3 V38A; [4]) was 0.6 ± 0.1 nM. The “n-fold relative to the IC50” value (HIV-1 NL4-3 V38M) was 2.8, the IC50 (HIV-1 NL4-3 V38M; [4]) was 1.7 nM and the “n-fold relative to the IC50” value (HIV-1 NL4-3 Q40H) was 1.3. The IC50 (HIV-1 NL4-3 Q40H; [4]) was 0.8 ± 0.1 nM, the “n-fold relative to the IC50” value (HIV-1 NL4-3 N43K) was 12 and the IC50 (HIV-1 NL4-3 N43K; [4]) was 7.2 ± 0.2 nM. The “n-fold relative to the IC50” value (HIV-1 NL4-3 D36S/V38M) was 2, the IC50 (HIV-1 NL4-3 D36S/V38M; [4]) was 1.2 nM and the “n-fold relative to the IC50” value (HIV-1 NL4-3 I37T/N43K) was 35.3. For the same compound, the IC50 (HIV-1 NL4-3 I37T/N43K; [4]) was 21.2 ± 4.4 nM, the “n-fold relative to the IC50” value (HIV-1 NL4-3 V38A/N42T) was 1 and the IC50 (HIV-1 NL4-3 V38A/N42T; [4]) was 0.6 nM.
